# Laboratory results from patent US20230340011A1 (Asteroid Therapeutics, priority 2022, published 2023).
# pEC50, pIC50: −log10 of the molar value. Where two headings read alike, the source gives them in different places.
# What was measured:
# [1] = target: LXRβ (Homo sapiens (Human), UniProt P55055); test: In vitro assay LXRβ: PathHunter NHR CHO cells, LXRβ / Steroid Receptor Co-activator Peptide enzyme fragment complementation; type: cell-based; conditions: PathHunter NHR CHO cells, full-length human LXRβ and SRCP, chemiluminescent signal; read-out: LXRβ PPI
# Chain of LXRβ (P55055 whole entry, the tested form may be a part): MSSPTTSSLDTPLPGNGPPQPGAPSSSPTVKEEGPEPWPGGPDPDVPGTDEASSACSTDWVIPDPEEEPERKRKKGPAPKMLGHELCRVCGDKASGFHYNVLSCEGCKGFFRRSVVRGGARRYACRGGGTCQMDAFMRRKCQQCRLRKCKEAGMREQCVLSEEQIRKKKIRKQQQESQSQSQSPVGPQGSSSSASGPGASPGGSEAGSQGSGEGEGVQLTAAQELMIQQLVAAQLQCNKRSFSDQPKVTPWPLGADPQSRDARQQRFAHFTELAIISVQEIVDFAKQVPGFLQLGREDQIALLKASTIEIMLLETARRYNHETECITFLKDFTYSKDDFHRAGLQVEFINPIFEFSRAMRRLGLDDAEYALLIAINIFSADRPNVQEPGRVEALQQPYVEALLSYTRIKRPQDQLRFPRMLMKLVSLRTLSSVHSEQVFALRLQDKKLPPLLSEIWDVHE
# In short: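 Co-activator recruitment measured by chemiluminescence after signal generation. The CHO line carries full-length human LXRβ tagged with ProLink and an SRCP–enzyme acceptor fusion in the nucleus; cells sat overnight at 37° C before testing, in charcoal-dextran filtered serum medium with 1% final vehicle.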
# [2] = target: SREBP-2 (Homo sapiens (Human), UniProt Q12772); test: In vitro assay SREBP-2: PathHunter U2OS SREBP-2 Nuclear Translocation Cell Line, U18666A-stimulated; type: cell-based
# [3] = PathHunter U2OS SREBP-2 nuclear translocation cells, U18666A 10 μM, overnight (16 hours)
SMILES,pEC50 [1],"pIC50 [2, 3]",pIC50 [2]
"C[C@H](CCC(=O)N1CCC(CNC(=O)C(C)(C)O)CC1)[C@H]1CC[C@H]2[C@@H]3CC=C4C[C@@H](O)CC[C@]4(C)[C@H]3CC[C@]12C [Example 228, 2-hydroxy-N-((1-((R)-4-((3S,8S,9S,10R,13R,14S,17R)-3-hydroxy-10,13-dimethyl-2,3,4,7,8,9,10,11,12,13,14,15,16,17-tetradecahydro-1H-cyclopenta[a]phenanthren-17-yl)pentanoyl)piperidin-4-yl)methyl)-2-methylpropanamide]",< 5.00,> 6.60,
"COC1CCN(C(=O)CC[C@@H](C)[C@H]2CC[C@H]3[C@@H]4CC=C5C[C@@H](O)CC[C@]5(C)[C@H]4CC[C@]23C)CC1 [Example 94, (R)-4-((3S,8S,9S,10R,13R,14S,17R)-3-hydroxy-10,13-dimethyl-2,3,4,7,8,9,10,11,12,13,14,15,16,17-tetradecahydro-1H-cyclopenta[a]phenanthren-17-yl)-1-(4-methoxypiperidin-1-yl)pentan-1-one]",6.00 to 6.60,> 6.60,
"C[C@H](CCC(=O)N1CC[C@H](Oc2ccncc2)C[C@@H]1C)[C@H]1CC[C@H]2[C@@H]3CC=C4C[C@@H](O)CC[C@]4(C)[C@H]3CC[C@]12C [Example 585, (R)-4-((3S,8S,9S,10R,13R,14S,17R)-3-hydroxy-10,13-dimethyl-2,3,4,7,8,9,10,11,12,13,14,15,16,17-tetradecahydro-1H-cyclopenta[a]phenanthren-17-yl)-1-((2S,4S)-2-methyl-4-(pyridin-4-yloxy)piperidin-1-yl)pentan-1-one]",6.00 to 6.60,> 6.60,
"COc1cncnc1N1CCN(C(=O)CC[C@@H](C)[C@H]2CC[C@H]3[C@@H]4CC=C5C[C@@H](O)CC[C@]5(C)[C@H]4CC[C@]23C)CC1 [Example 204, (4R)-4-[(1R,3aS,3bS,7S,9aR,9bS,11aR)-7-hydroxy-9a,11a-dimethyl-1H,2H,3H,3aH,3bH,4H,6H,7H,8H,9H,9aH,9bH,10H,11H,11aH-cyclopenta[a]phenanthren-1-yl]-1-[4-(5-methoxypyrimidin-4-yl)piperazin-1-yl]pentan-1-one]",< 5.00,> 6.60,
"C[C@H](CCC(=O)N1CCN(c2ncnn2C)CC1)[C@H]1CC[C@H]2[C@@H]3CC=C4C[C@@H](O)CC[C@]4(C)[C@H]3CC[C@]12C [Example 605, (R)-4-((3S,8S,9S,10R,13R,14S,17R)-3-hydroxy-10,13-dimethyl-2,3,4,7,8,9,10,11,12,13,14,15,16,17-tetradecahydro-1H-cyclopenta[a]phenanthren-17-yl)-1-(4-(1-methyl-1H-1,2,4-triazol-5-yl)piperazin-1-yl)pentan-1-one]",< 5.00,> 6.60,
"C[C@H](CCC(=O)N(C)C)[C@H]1CC[C@H]2[C@@H]3CC=C4CC(F)(F)CC[C@]4(C)[C@H]3CC[C@]12C [Example 127, (R)-4-((8S,9S,10R,13R,14S,17R)-3,3-difluoro-10,13-dimethyl-2,3,4,7,8,9,10,11,12,13,14,15,16,17-tetradecahydro-1H-cyclopenta[a]phenanthren-17-yl) -N,N-dimethylpentanamide]",< 5.00,< 5.00,
"C[C@H](CCC(=O)N1CCN(c2ccnc(O)n2)CC1)[C@H]1CC[C@H]2[C@@H]3CC=C4C[C@@H](O)CC[C@]4(C)[C@H]3CC[C@]12C [Example 559, (R)-4-((3S,8S,9S,10R,13R,14S,17R)-3-hydroxy-10,13-dimethyl-2,3,4,7,8,9,10,11,12,13,14,15,16,17-tetradecahydro-1H-cyclopenta[a]phenanthren-17-yl)-1-(4-(2-hydroxypyrimidin-4-yl)piperazin-1-yl)pentan-1-one]",< 5.00,> 6.60,
"C[C@H](CCC(=O)N1CCC(C(C)(C)O)CC1)[C@H]1CC[C@H]2[C@@H]3CC=C4C[C@@H](O)CC[C@]4(C)[C@H]3CC[C@]12C [Example 378, (R)-4-((3S,8S,9S,10R,13R,14S,17R)-3-hydroxy-10,13-dimethyl-2,3,4,7,8,9,10,11,12,13,14,15,16,17-tetradecahydro-1H-cyclopenta[a]phenanthren-17-yl)-1-(4-(2-hydroxypropan-2-yl)piperidin-1-yl)pentan-1-one]",< 5.00,> 6.60,
"C[C@H]1CCN(C(=O)CC[C@@H](C)[C@H]2CC[C@H]3[C@@H]4CC=C5C[C@@H](O)CC[C@]5(C)[C@H]4CC[C@]23C)C1 [Example 114, (R)-4-((3S,8S,9S,10R,13R,14S,17R)-3-hydroxy-10,13-dimethyl-2,3,4,7,8,9,10,11,12,13,14,15,16,17-tetradecahydro-1H-cyclopenta[a]phenanthren-17-yl)-1-((S)-3-methylpyrrolidin-1-yl)pentan-1-one]",6.00 to 6.60,> 6.60,
"COCCN(C)C(=O)N1CCN(C(=O)CC[C@@H](C)[C@H]2CC[C@H]3[C@@H]4CC=C5C[C@@H](O)CC[C@]5(C)[C@H]4CC[C@]23C)CC1 [Example 209, 4-((R)-4-((3S,8S,9S,10R,13R,14S,17R)-3-hydroxy-10,13-dimethyl-2,3,4,7,8,9,10,11,12,13,14,15,16,17-tetradecahydro-1H-cyclopenta[a]phenanthren-17-yl)pentanoyl)-N-(2-methoxyethyl)-N-methylpiperazine-1-carboxamide]",< 5.00,,> 6.60
"Cc1nccc(N2CCN(C(=O)CC[C@@H](C)[C@H]3CC[C@H]4[C@@H]5CC=C6C[C@@H](O)CC[C@]6(C)[C@H]5CC[C@]34C)C[C@@H]2C)n1 [Example 647, (4R)-4-[(1R,3aS,3bS,7S,9aR,9bS,11aR)-7-hydroxy-9a,11a-dimethyl-1H,2H,3H,3aH,3bH,4H,6H,7H,8H,9H,9aH,9bH,10H,11H,11aH-cyclopenta[a]phenanthren-1-yl]-1-[(3S)-3-methyl-4-(2-methylpyrimidin-4-yl)piperazin-1-yl]pentan-1-one]",< 5.00,> 6.60,
"C[C@H](CCC(=O)N1CCN(C)C(=O)C1)[C@H]1CC[C@H]2[C@@H]3CC=C4C[C@@H](O)CC[C@]4(C)[C@H]3CC[C@]12C [Example 361, 4-[(4R)-4-[(1R,3aS,3bS,7S,9aR,9bS,11aR)-7-hydroxy-9a,11a-dimethyl-1H,2H,3H,3aH,3bH,4H,6H,7H,8H,9H,9aH,9bH,10H,11H,11aH-cyclopenta[a]phenanthren-1-yl]pentanoyl]-1-methylpiperazin-2-one]",< 5.00,6.00 to 6.60,
"CNC(=O)c1cccnc1OC[C@@H](C)[C@H]1CC[C@H]2[C@@H]3CC=C4C[C@@H](O)CC[C@]4(C)[C@H]3CC[C@]12C [Example 253, 2-((S)-2-((3S,8S,9S,10R,13S,14S,17R)-3-hydroxy-10,13-dimethyl-2,3,4,7,8,9,10,11,12,13,14,15,16,17-tetradecahydro-1H-cyclopenta[a]phenanthren-17-yl)propoxy)-N-methylnicotinamide]",< 5.00,> 6.60,
"CNC(=O)NCC1(C)CCN(C(=O)CC[C@@H](C)[C@H]2CC[C@H]3[C@@H]4CC=C5C[C@@H](O)CC[C@]5(C)[C@H]4CC[C@]23C)CC1 [Example 364, 1-((1-((R)-4-((3S,8S,9S,10R,13R,14S,17R)-3-hydroxy-10,13-dimethyl-2,3,4,7,8,9,10,11,12,13,14,15,16,17-tetradecahydro-1H-cyclopenta[a]phenanthren-17-yl)pentanoyl)-4-methylpiperidin-4-yl)methyl)-3-methylurea]",< 5.00,> 6.60,
"C[C@H](CCC(=O)N1CCN(C(=O)c2cnn(C)c2)[C@@H](C)C1)[C@H]1CC[C@H]2[C@@H]3CC=C4C[C@@H](O)CC[C@]4(C)[C@H]3CC[C@]12C [Example 565, (4R)-4-[(1R,3aS,3bS,7S,9aR,9bS,11aR)-7-hydroxy-9a,11a-dimethyl-1H,2H,3H,3aH,3bH,4H,6H,7H,8H,9H,9aH,9bH,10H,11H,11aH-cyclopenta[a]phenanthren-1-yl]-1-[(3S)-3-methyl-4-(1-methyl-1H-pyrazole-4-carbonyl)piperazin-1-yl]pentan-1-one]",< 5.00,> 6.60,
"CC(C)OC(=O)N1CCN(C(=O)CC[C@@H](C)[C@H]2CC[C@H]3[C@@H]4CC=C5C[C@@H](O)CC[C@]5(C)[C@H]4CC[C@]23C)[C@@H](C)C1 [Example 589, Isopropyl(S)-4-((R)-4-((3S,8S,9S,10R,13R,14S,17R)-3-hydroxy-10,13-dimethyl-2,3,4,7,8,9,10,11,12,13,14,15,16,17-tetradecahydro-1H-cyclopenta[a]phenanthren-17-yl)pentanoyl)-3-methylpiperazine-1-carboxylate]",< 5.00,> 6.60,
"C[C@H](CCC(=O)N(C)OCCC(F)(F)F)[C@H]1CC[C@H]2[C@@H]3CC=C4C[C@@H](O)CC[C@]4(C)[C@H]3CC[C@]12C [Example 29, (R)-4-((3S,8S,9S,10R,13R,14S,17R)-3-hydroxy-10,13-dimethyl-2,3,4,7,8,9,10,11,12,13,14,15,16,17-tetradecahydro-1H-cyclopenta[a]phenanthren-17-yl)-N-methyl-N-(3,3,3-trifluoropropoxy)pentanamide]",< 5.00,> 6.60,
"CCN(C(=O)C(=O)O[C@@H](C)[C@H]1CC[C@H]2[C@@H]3CC=C4C[C@@H](O)CC[C@]4(C)[C@H]3CC[C@]12C)C(C)C [Example 197, (S)-1-((3S,8S,9S,10R,13S,14S,17S)-3-hydroxy-10,13-dimethyl-2,3,4,7,8,9,10,11,12,13,14,15,16,17-tetradecahydro-1H-cyclopenta[a]phenanthren-17-yl)ethyl 2-(ethyl(isopropyl)amino)-2-oxoacetate]",6.00 to 6.60,> 6.60,
